PubChem BioAssay (NCI)
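Where inhibition never reached the appropriate level, the endpoint shown equals the highest concentration tested. Otherwise, values were interpolated linearly from a five-concentration, 48-hour dose response in 96-well plates. TGI is the concentration that stops growth completely.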

How the values were obtained:
Test in all cases: inhibition of tumour cell growth, NCI panel, 48 h
786-0 renal = test system: 786-0 renal
HCT-15 colon = test system: HCT-15 colon
NCI-H522 lung = test system: NCI-H522 lung
OVCAR-5 ovarian = test system: OVCAR-5 ovarian
SF-268 CNS = test system: SF-268 CNS
SK-MEL-2 melanoma = test system: SK-MEL-2 melanoma
SK-MEL-28 melanoma = test system: SK-MEL-28 melanoma
SN12C renal = test system: SN12C renal
SNB-75 CNS = test system: SNB-75 CNS
T-47D breast = test system: T-47D breast
TK-10 renal = test system: TK-10 renal
UACC-62 melanoma = test system: UACC-62 melanoma
SW-620 colon = test system: SW-620 colon

Row | SMILES | TGI (786-0 renal) | TGI (HCT-15 colon) | TGI (NCI-H522 lung) | TGI (OVCAR-5 ovarian) | TGI (SF-268 CNS) | TGI (SK-MEL-2 melanoma) | TGI (SK-MEL-28 melanoma) | TGI (SN12C renal) | TGI (SNB-75 CNS) | TGI (T-47D breast) | TGI (TK-10 renal) | TGI (UACC-62 melanoma) | TGI (SW-620 colon)
1 | CN(C)CCNC(=O)c1ccc(NCCCN(C)CCCNc2ccc(C(=O)NCCN(C)C)c3[nH]c4ccccc4c(=O)c23)c2c(=O)c3ccccc3[nH]c12 | 0.312 µM | 4.52 µM | 0.143 µM | 0.647 µM | 0.271 µM | 0.262 µM | 1.23 µM | 0.397 µM | 0.0844 µM | 1.85 µM | 1.98 µM | 0.353 µM | –
2 | NC(=O)N/N=C(/CC1C(=O)Oc2ccccc21)c1ccccc1O (stereo not drawn) | > 100 µM | > 100 µM | > 100 µM | > 100 µM | > 100 µM | > 100 µM | > 100 µM | > 100 µM | > 100 µM | > 100 µM | > 100 µM | 63.6 µM | > 100 µM
3 | CSc1ccc(-c2cc(-c3nc4ccccc4[nH]3)no2)cc1 | > 100 µM | 62.9 µM | 69.5 µM | > 100 µM | > 100 µM | 49.4 µM | > 100 µM | > 100 µM | > 100 µM | 37.3 µM | > 100 µM | 39.1 µM | > 100 µM
4 | O=C1c2ccccc2C(=O)c2cc(N=Nc3c(O)ccc4ccccc34)ccc21 | > 100 µM | > 100 µM | > 100 µM | > 100 µM | > 100 µM | > 100 µM | > 100 µM | > 100 µM | > 100 µM | > 100 µM | > 100 µM | > 100 µM | > 100 µM
5 | COc1cc2c(cc1OC)C(=O)N(c1ccc(O)cc1)C2=O | > 100 µM | > 100 µM | > 100 µM | > 100 µM | > 100 µM | > 100 µM | > 100 µM | > 100 µM | – | > 100 µM | > 100 µM | > 100 µM | > 100 µM
6 | O=C1/C(=C\c2cccc(Oc3ccccc3)c2)SC(c2ccccc2)N1c1ccccc1 (stereo not drawn) | > 100 µM | > 100 µM | > 100 µM | > 100 µM | > 100 µM | > 100 µM | > 100 µM | > 100 µM | – | > 100 µM | > 100 µM | > 100 µM | > 100 µM
7 | CCCC(CCC(N)=O)(CCC(N)=O)[N+](=O)[O-] | > 100 µM | > 100 µM | > 100 µM | > 100 µM | > 100 µM | > 100 µM | – | > 100 µM | > 100 µM | > 100 µM | > 100 µM | > 100 µM | > 100 µM
8 | Cc1cc2/c(=C\c3ccc(N(C)C)cc3)c3ccccc3n2[n+]1C | 8.77 µM | 34.7 µM | 1.99 µM | 21.3 µM | 6.57 µM | 2.08 µM | 3.19 µM | 1.65 µM | 2.26 µM | 3.76 µM | 6.04 µM | 2.95 µM | > 32 µM
9 | C=CCC1CC(n2cc(C)c(=O)[nH]c2=O)OC1CO[Si](C)(C)C(C)(C)C (stereo not drawn) | 28.8 µM | 29.1 µM | 23.1 µM | 31.7 µM | 30.9 µM | 32.8 µM | 30.4 µM | 29.1 µM | 25.4 µM | 26.8 µM | 30.1 µM | 31.7 µM | 31.9 µM
